Some test systems named below: COLO 205 colon; OVCAR-5 ovarian; A498 renal; SF-268 CNS; CAKI-1 renal; SK-MEL-2 melanoma; HOP-92 NSCLC; A549 NSCLC; SN12C renal; HCT-15 colon.
Assay in all cases: NCI-60 cell line screen, 48 h

The structures appear in SMILES notation.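 Five concentrations, 48 hours, 96-well plates. GI50 marks 50% less growth. TGI: concentration producing complete growth inhibition.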

Turning to `CCCCCCCCc1cc(O)ccc1O`, the GI50 in the assay on COLO 205 colon is 30.1 µM; in the assay with OVCAR-5 ovarian, 19.9 µM; in the assay on A498 renal, 15.3 µM; in the assay on SF-268 CNS, 14.1 µM; in the assay with CAKI-1 renal it was 21.3 µM; with SK-MEL-2 melanoma, 13 µM. For the same compound, the GI50 was 4.65 µM in the assay on HOP-92 NSCLC, 28.6 µM with A549 NSCLC, 14.3 µM with SN12C renal and 16.4 µM in the assay with HCT-15 colon. The TGI in the assay with COLO 205 colon was determined as 68.7 µM; with OVCAR-5 ovarian, 42.8 µM; in the assay on A498 renal it was 36 µM; in the assay on SF-268 CNS it was 31.3 µM; with CAKI-1 renal it was 90 µM; in the assay with SK-MEL-2 melanoma, 30.8 µM. For the same compound, the TGI with HOP-92 NSCLC is 21.1 µM; in the assay on A549 NSCLC, above 100 µM; in the assay on SN12C renal, 27.4 µM; with HCT-15 colon it was 38 µM.
Regarding `C[C@@H]1Cc2c(ccc3[nH]ncc23)[C@@H](c2ccc(NC3CN(CCCF)C3)cn2)N1CC(F)(F)F`, the GI50 in the assay on COLO 205 colon was 16.5 µM; in the assay with OVCAR-5 ovarian, 26.4 µM; in the assay on A498 renal it was 15.6 µM; in the assay on SF-268 CNS it was 22.3 µM; in the assay on CAKI-1 renal it was 15.9 µM; with SK-MEL-2 melanoma, 19 µM. Moreover, the GI50 with HOP-92 NSCLC was 3.1 µM; in the assay on A549 NSCLC it was 30.8 µM; with SN12C renal it was 24 µM; in the assay on HCT-15 colon, 16.7 µM. Besides, the TGI is 35.5 µM in the assay with COLO 205 colon; above 100 µM in the assay on OVCAR-5 ovarian; 36.6 µM in the assay with A498 renal; 79.4 µM in the assay with SF-268 CNS; 37.1 µM in the assay with CAKI-1 renal; 42.9 µM with SK-MEL-2 melanoma. Besides, the TGI with HOP-92 NSCLC is 20.1 µM; in the assay with A549 NSCLC it was above 100 µM; in the assay with SN12C renal, 79 µM; in the assay on HCT-15 colon it was 35 µM.
As to `COc1cc([C@@H]2c3cc4c(cc3[C@@H](NCc3cccc(F)c3)C3COC(=O)[C@@H]32)OCO4)cc(OC)c1O` (stereo not given in full), the TGI in the assay with COLO 205 colon was above 65 µM; in the assay with OVCAR-5 ovarian, 51.3 µM; in the assay with A498 renal, 13.1 µM; with SF-268 CNS, above 65 µM; with CAKI-1 renal, 51.4 µM; in the assay with SK-MEL-2 melanoma it was 29.5 µM. Moreover, the TGI in the assay on HOP-92 NSCLC is above 65 µM; in the assay with A549 NSCLC it was 10.9 µM; with SN12C renal, 12.8 µM; with HCT-15 colon it was 20.5 µM.
`NC(=O)c1nc(-c2ccc(Cl)c(Cl)c2)nc2ccccc12`: the TGI in the assay with COLO 205 colon, in the assay on OVCAR-5 ovarian, in the assay with A498 renal, with SF-268 CNS, in the assay on CAKI-1 renal and with SK-MEL-2 melanoma was above 100 µM in each case. In addition, the TGI in the assay with HOP-92 NSCLC was 4.74 µM; in the assay with A549 NSCLC, above 100 µM; in the assay with SN12C renal, above 100 µM; with HCT-15 colon, above 100 µM.
`CCCCCC/C(CC(=O)CCC(=O)NCCc1ccccc1)=N\Nc1ccc([N+](=O)[O-])cc1[N+](=O)[O-]`: the TGI in the assay with COLO 205 colon, in the assay on OVCAR-5 ovarian, in the assay on A498 renal, in the assay with SF-268 CNS, with CAKI-1 renal and in the assay on SK-MEL-2 melanoma was above 100 µM each time. Moreover, the TGI in the assay with HOP-92 NSCLC, in the assay on A549 NSCLC, in the assay with SN12C renal and in the assay on HCT-15 colon was above 100 µM each time.
Regarding `CCOC(=O)C(=O)Nc1nc2ccc(C)cc2s1`, the TGI in the assay with COLO 205 colon, in the assay on OVCAR-5 ovarian, in the assay with A498 renal, in the assay with SF-268 CNS, in the assay on CAKI-1 renal and with SK-MEL-2 melanoma was above 100 µM each time. The TGI with HOP-92 NSCLC, in the assay on A549 NSCLC, with SN12C renal and with HCT-15 colon was above 100 µM in each case.
`COC(=O)C(/C(=N\O)C(=O)Nc1ccc(Br)cc1)c1nc2ccccc2[nH]c1=O` (stereo not given): the TGI with COLO 205 colon is 37.5 µM; with OVCAR-5 ovarian, above 100 µM; in the assay on A498 renal it was above 100 µM; with SF-268 CNS it was above 100 µM; in the assay on CAKI-1 renal, above 100 µM; in the assay with SK-MEL-2 melanoma, 49.2 µM. Also, the TGI with HOP-92 NSCLC was 97.6 µM; in the assay on A549 NSCLC, above 100 µM; in the assay with SN12C renal it was above 100 µM; in the assay on HCT-15 colon, above 100 µM.
As to `O=C(CCc1cc(-c2ccc(F)cc2)n[nH]1)N(Cc1ccccc1)Cc1ccccc1`, the TGI in the assay on COLO 205 colon, in the assay with OVCAR-5 ovarian, in the assay with A498 renal, with SF-268 CNS, with CAKI-1 renal and with SK-MEL-2 melanoma was above 100 µM in each case. Besides, the TGI in the assay with HOP-92 NSCLC, with A549 NSCLC, in the assay with SN12C renal and in the assay on HCT-15 colon was above 100 µM throughout.
`Oc1ccc(O)c(-n2cccn2)c1-n1cccn1`: the TGI with COLO 205 colon was 90.1 µM; with OVCAR-5 ovarian it was above 100 µM; with A498 renal, above 100 µM; with SF-268 CNS it was above 100 µM; in the assay with CAKI-1 renal it was above 100 µM; with SK-MEL-2 melanoma it was above 100 µM. Besides, the TGI in the assay with HOP-92 NSCLC, in the assay on A549 NSCLC, in the assay with SN12C renal and in the assay with HCT-15 colon was above 100 µM throughout.
For `NC1=C(O)C(=O)C(c2c[nH]c3ccc(OCc4ccccc4)cc23)O1` (stereo not given), the TGI in the assay with COLO 205 colon, in the assay with OVCAR-5 ovarian, in the assay on A498 renal, with SF-268 CNS, in the assay on CAKI-1 renal and in the assay on SK-MEL-2 melanoma was above 100 µM throughout. The TGI in the assay on HOP-92 NSCLC, in the assay with A549 NSCLC, in the assay on SN12C renal and in the assay with HCT-15 colon was above 100 µM in each case.
For `N=C1C=C(N)C(=O)c2ccccc21`, the GI50 is 0.267 µM in the assay with COLO 205 colon; 0.184 µM in the assay on OVCAR-5 ovarian; 1.57 µM in the assay with A498 renal; 0.199 µM in the assay with SF-268 CNS; 0.187 µM with CAKI-1 renal; 0.189 µM in the assay with SK-MEL-2 melanoma. Further, the GI50 in the assay on HOP-92 NSCLC is 0.207 µM; in the assay on A549 NSCLC it was 1.04 µM; in the assay on SN12C renal it was 0.188 µM; in the assay on HCT-15 colon, 0.225 µM. The TGI in the assay on COLO 205 colon is 0.664 µM; with OVCAR-5 ovarian, 0.373 µM; in the assay on A498 renal, 2.95 µM; in the assay with SF-268 CNS it was 0.451 µM; in the assay with CAKI-1 renal, 0.379 µM; in the assay with SK-MEL-2 melanoma it was 0.373 µM. The TGI in the assay with HOP-92 NSCLC amounted to 0.496 µM; in the assay on A549 NSCLC it was 2.7 µM; with SN12C renal, 0.376 µM; in the assay on HCT-15 colon, 0.578 µM.
